# Data from patent US20180140572A1, “COMPOSITIONS COMPRISING A CANCER STEMNESS INHIBITOR AND AN IMMUNOTHERAPEUTIC AGENT FOR USE IN TREATING CANCER” (Boston Biomedical, Inc., priority 2015, published 2018).
# Legend:
# [1] = system: CD8^+ T cells producing IFN-γ; test: Tumor antigen-specific T cell immune response (IFN-γ producing spleen CD8+ T cells); assay type: in vivo, Apc^Min/+ mice; settings: in the presence of the tumor antigen, vs control samples
# Excerpt: All animals were housed in Association for Assessment and Accreditation of Laboratory Animal Care-approved facilities in static microisolator cages. Testing confirmed the mice were pathogen-free and there was no evidence of murine Helicobacter spp. by culture or PCR. Apc^Min/+ mice on a C57BL/6J background were originally obtained from the Jackson Laboratory (Bar Harbor, Me.) and bred in-house to wild-type (wt) C57BL/6J mice to generate Apc^Min/+. 17 week old Apc^Min/+ mice or matched wild-type controls were treated with either vehicle alone, or BBI608 at 200 mg/kg daily by oral gavage (p.o., q.d.) for 4 consecutive days (n=4/group). Body weight and clinical signs were monitored throughout the course of the treatment. On treatment day 4, the animals were sacrificed 4 hours after the last dose and the tumors in the Apc^Min/+ small intestine or a piece of normal intestine, from wild type controls, were harvested.
# Spleen tissues were collected from the above APC^Min/+ mice at the time of tumor harvesting. CD8^+ T cells were separated using a CD8^+ T cells isolation kit according to the manufacturer's protocol (STEMCELL Technology). […] Intracellular IFN-γ was then stained with Alexa-647 labeled rat anti-mouse IFN-γ antibody (1:100, BD) and CD8^+ T cells producing IFN-γ were analyzed under the Zeiss fluorescence microscope described above.
# FaDu sphere cultures = test: qPCR cancer stem cell array in FaDu sphere cultures; assay type: cell-based; design: % Change ATM / % Change MERTK / % Change NOTCH2 / % Change LATS1 / % Change ITGA2 / % Change SMO / % Change TGFBR1 / % Change MAML1 / % Change WWC1 / % Change ITGA6 / % Change ITGB1 / % Change AXL / % Change KITLG / % Change JAK2 / % Change YAP1 / % Change BMI1 / % Change NOTCH1 / % Change ATXN1 / % Change ERBB2 / % Change SIRT1 / % Change WEE1 / % Change FGFR2 / % Change DDR1 / % Change GSK3B / % Change ENG / % Change DACH1 / % Change ALCAM / % Change HDAC1 / % Change CD44 / % Change HPRT1 / % Change IKBKB / % Change DNMT1 / % Change ETFA / % Change FOXP1 / % Change FLOT2 / % Change CHEK1 / % Change MUC1 / % Change CD24 / % Change NFKB1 / % Change NANOG / % Change ACTB / % Change EPCAM / % Change STAT3 / % Change TWIST2 / % Change PLAUR / % Change EGF / % Change ALDH1A1 / % Change RPLP0 / % Change TAZ / % Change JAG1 / % Change KLF17 / % Change ID1 / % Change ITGA4 / % Change IL8 / % Change MYC / % Change CD34 / % Change LIN28A / % Change POU5F1 / % Change PECAM1: dose or concentration left out as unconfirmed; settings: 6 hours, normalized to GAPDH
# Method: The changes in gene expression following treatment with BBI608 were analyzed. FaDu sphere cultures were treated for 6 hours with DMSO (control) or BBI608 at […]. Total RNA was isolated, reversed transcribed and the generated cDNA was analyzed using a qPCR cancer stem cell array. Data was normalized to the expression of the house keeping gene, GAPDH.
structure (smiles),measurement,setting,value
"CC(=O)c1cc2c(o1)C(=O)c1ccccc1C2=O [BBI608, 2-acetylnaphtho[2,3-b]furan-4,9-dione]",percentage of CD8^+ T cells producing INF-γ,[1],higher percentage
same,% Change ACTB,FaDu sphere cultures; gene ACTB,−24.49%
same,% Change ALCAM,FaDu sphere cultures; gene ALCAM,−36.13%
same,% Change ALDH1A1,FaDu sphere cultures; gene ALDH1A1,−18.18%
same,% Change ATM,FaDu sphere cultures; gene ATM,−68.65%
same,% Change ATXN1,FaDu sphere cultures; gene ATXN1,−45.26%
same,% Change AXL,FaDu sphere cultures; gene AXL,−48.50%
same,% Change B2M,FaDu sphere cultures; gene B2M,−27.69%
same,% Change BMI1,FaDu sphere cultures; gene BMI1,−47.40%
same,% Change CD24,FaDu sphere cultures; gene CD24,−26.46%
same,% Change CD34,FaDu sphere cultures; gene CD34,−88.18%
same,% Change CD44,FaDu sphere cultures; gene CD44,−35.44%
same,% Change CHEK1,FaDu sphere cultures; gene CHEK1,−28.88%
same,% Change DACH1,FaDu sphere cultures; gene DACH1,−36.55%
same,% Change DDR1,FaDu sphere cultures; gene DDR1,−38.59%
same,% Change DNMT1,FaDu sphere cultures; gene DNMT1,−32.09%
same,% Change EGF,FaDu sphere cultures; gene EGF,−19.07%
same,% Change ENG,FaDu sphere cultures; gene ENG,−37.62%
same,% Change EPCAM,FaDu sphere cultures; gene EPCAM,−22.87%
same,% Change ERBB2,FaDu sphere cultures; gene ERBB2,−43.81%
same,% Change ETFA,FaDu sphere cultures; gene ETFA,−31.12%
same,% Change FGFR2,FaDu sphere cultures; gene FGFR2,−41.18%
same,% Change FLOT2,FaDu sphere cultures; gene FLOT2,−29.19%
same,% Change FOXP1,FaDu sphere cultures; gene FOXP1,−29.76%
same,% Change GSK3B,FaDu sphere cultures; gene GSK3B,−38.06%
same,% Change HDAC1,FaDu sphere cultures; gene HDAC1,−36.10%
same,% Change HPRT1,FaDu sphere cultures; gene HPRT1,−33.81%
same,% Change ID1,FaDu sphere cultures; gene ID1,−12.68%
same,% Change IKBKB,FaDu sphere cultures; gene IKBKB,−32.11%
same,% Change IL8,FaDu sphere cultures; gene IL8,−7.62%
same,% Change ITGA2,FaDu sphere cultures; gene ITGA2,−60.71%
same,% Change ITGA4,FaDu sphere cultures; gene ITGA4,−11.52%
same,% Change ITGA6,FaDu sphere cultures; gene ITGA6,−54.63%
same,% Change ITGB1,FaDu sphere cultures; gene ITGB1,−50.45%
same,% Change JAG1,FaDu sphere cultures; gene JAG1,−14.24%
same,% Change JAK2,FaDu sphere cultures; gene JAK2,−47.94%
same,% Change KITLG,FaDu sphere cultures; gene KITLG,−47.99%
same,% Change KLF17,FaDu sphere cultures; gene KLF17,−90.18%
same,% Change LATS1,FaDu sphere cultures; gene LATS1,−60.75%
same,% Change LIN28A,FaDu sphere cultures; gene LIN28A,−87.52%
same,% Change MAML1,FaDu sphere cultures; gene MAML1,−52.82%
same,% Change MERTK,FaDu sphere cultures; gene MERTK,−65.78%
same,% Change MUC1,FaDu sphere cultures; gene MUC1,−27.42%
same,% Change MYC,FaDu sphere cultures; gene MYC,−3.91%
same,% Change NANOG,FaDu sphere cultures; gene NANOG,−93.34%
same,% Change NFKB1,FaDu sphere cultures; gene NFKB1,−25.54%
same,% Change NOTCH1,FaDu sphere cultures; gene NOTCH1,−46.24%
same,% Change NOTCH2,FaDu sphere cultures; gene NOTCH2,−64.37%
same,% Change PECAM1,FaDu sphere cultures; gene PECAM1,−70.26%
same,% Change PLAUR,FaDu sphere cultures; gene PLAUR,−20.64%
same,% Change POU5F1,FaDu sphere cultures; gene POU5F1,−77.31%
same,% Change RPLP0,FaDu sphere cultures; gene RPLP0,−17.48%
same,% Change SIRT1,FaDu sphere cultures; gene SIRT1,−43.35%
same,% Change SMO,FaDu sphere cultures; gene SMO,−55.56%
same,% Change STAT3,FaDu sphere cultures; gene STAT3,−22.87%
same,% Change TAZ,FaDu sphere cultures; gene TAZ,−15.09%
same,% Change TGFBR1,FaDu sphere cultures; gene TGFBR1,−53.34%
same,% Change TWIST2,FaDu sphere cultures; gene TWIST2,−21.59%
same,% Change WEE1,FaDu sphere cultures; gene WEE1,−42.86%
same,% Change WWC1,FaDu sphere cultures; gene WWC1,−51.64%
same,% Change YAP1,FaDu sphere cultures; gene YAP1,−47.45%
